The assay has as its target HLA-DQ8 (Homo sapiens, UniProt P01909+P01920, A209T/A45G/C70Q/D89A/DUP78-78/E183D/E77G/F237L/G63E/H199R/I129T/K197E/L178F/L74F/L98V/Q57E/Q76R/S185I/S97I/T217I/T49S/V73L/Y58L). The assay is described as follows: biochemical. The class given is binding.

pIC50: −log10 of the molar value. Where no end group is shown, it is not given here.

As a reminder, the pIC50 is −log10 of the IC50, conventionally taken in molar units. Higher therefore signals a low IC50.

Sequence of HLA-DQ8 (P01920 33-261 A45G/Y58L/E77G/D89A/H199R/T217I limits assumed, other chains not shown): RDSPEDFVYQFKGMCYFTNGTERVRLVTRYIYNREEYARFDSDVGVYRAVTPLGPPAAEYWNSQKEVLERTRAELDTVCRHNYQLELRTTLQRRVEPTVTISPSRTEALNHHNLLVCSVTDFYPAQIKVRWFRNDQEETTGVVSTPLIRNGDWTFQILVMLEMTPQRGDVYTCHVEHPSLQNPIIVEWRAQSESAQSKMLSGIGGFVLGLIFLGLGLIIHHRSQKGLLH

The sequence ADVEVYRAVTPLGPPD [DQB45–57] showed a pIC50 of 7.00.
